In US20250262226A1, “COMBINATIONS OF VITAMIN D3, NIACINAMIDE AND LIPOIC ACID FOR USE IN THE MAINTENANCE OF HEALTHY BLOOD GLUCOSE LEVELS” (priority 2022, published 2025):

Test system: L6 muscle cells
Assay: Insulin-stimulated glucose uptake (2-NBDG) in L6 muscle cells
Format: cell-based
Conditions: for increase in glucose uptake after insulin pulse over control cells: 100 nM insulin, FIG. 4; for glucose uptake relative to control cells: insulin stimulated, FIG. 5, V 500 IU, N 15 mg/ml, LA 0.5 mM
Protocol: The effect of each of vitamin D3, niacinamide and lipoic acid separately, and the fixed dose combination of vitamin D3, niacinamide and lipoic acid composition provided herein, were evaluated for the ability of each to have an effect on glucose uptake in an in vitro model. A goal was to improve insulin's ability to increase the uptake of glucose by L6 muscle cells.
Vitamin D3 was utilized to increase GLUT4 levels since this vitamin has been shown before to increase GLUT4 levels in muscle, and niacinamide was used to increase cellular NAD levels (El-Fakhri et al., Horm Res Paediact 81:363-378 (2014); Manna et al., J Biol Chem 287 (50): 42324-42332 (2012); Garten, Endocrinologist, Issue 135 (2020); and Fan et al., J Diabetes Investig. 11 (6): 1403-1419 (2020)). Glucose uptake studies using L6 cells were performed. L6 cells (ATCC CLR-1458; Rockville, MD) were maintained in Dulbecco's modified Eagle's medium (DMEM) supplemented with 10% Fetal Bovine Serum (FBS) and 100 μg/mL penicillin and streptomycin, at 37° C. in an atmosphere of 5% CO2. 2-(N-[7-nitrobenz-2-oxa-1, 3-diazol-4-yl]amino)-2-deoxyglucose (2-NBDG) (Molecular Probes-Invitrogen, CA, USA) was used to assess glucose uptake in the L6 cells. The cells were kept in glucose free medium for half an hour before insulin stimulation. The cells were then stimulated with 100 nM insulin for 10 and 20 min and incubated with 10 μM of 2-NBDG for 15 min. The reaction was stopped by washing with cold PBS three times and the cells were lysed using 0.1% Triton X. The lysate was then used to read florescence at […]. The data is reported in FIG. 4 as percent of control cells (no treatment, incubation with media).
Experiment conducted n=5. Student's t-tests were performed to compare between the present glucose uptake shown by control, vitamin D, niacinamide, and their combination at different time points.
Because the TCA cycle and glucose metabolism in the mitochondria generate oxidative stress, lipoic acid, an antioxidant (Golbidi et al., Front Pharmacol, Vol. 2, Article 69 (2011), 15 pages) which is known to enter the mitochondria, was tested to determine if it could further enhance glucose uptake. The following combinations were tested for improvements in muscle cell glucose uptake stimulated by insulin: Vitamin D3 plus Niacinamide plus or minus Lipoic acid alone.

| Compound | increase in glucose uptake after insulin pulse over control cells (10 minutes) | increase in glucose uptake after insulin pulse over control cells (20 minutes) | glucose uptake relative to control cells |
| --- | --- | --- | --- |
| NC(=O)c1cccnc1 [niacinamide] | about 3 fold | only little | – |
| C=C1CC[C@H](O)C/C1=C/C=C1\CCC[C@]2(C)[C@@H]([C@H](C)CCCC(C)C)CC[C@@H]12 [vitamin D3, cholecalciferol] | about 6 fold | less so | – |
| O=C(O)CCCCC1CCSS1 (racemic) [Lipoic acid, DL-alpha-lipoic acid] | – | – | did not increase glucose uptake |
| Vitamin E | – | – | had no effect |
